ChEMBL document CHEMBL4354824, “4-Aryl-1-oxa-4,9-diazaspiro[5.5]undecane Derivatives as Dual μ-Opioid Receptor Agonists and σ1 Receptor Antagonists for the Treatment of Pain” (J Med Chem, 2020)
Converted amounts (≈) assume the structure as drawn.

Legend:
[1] = molecular target: T1, Alpha-1A adrenergic receptor (Homo sapiens) (UniProt P35348); experiment: Displacement of [3H]-prazosin from human alpha1A adrenoreceptor expressed in enriched membranes at 1 uM incubated for 90 mins by liquid scintillation counting method relative to control; format: cell membranes
T1 sequence (whole entry): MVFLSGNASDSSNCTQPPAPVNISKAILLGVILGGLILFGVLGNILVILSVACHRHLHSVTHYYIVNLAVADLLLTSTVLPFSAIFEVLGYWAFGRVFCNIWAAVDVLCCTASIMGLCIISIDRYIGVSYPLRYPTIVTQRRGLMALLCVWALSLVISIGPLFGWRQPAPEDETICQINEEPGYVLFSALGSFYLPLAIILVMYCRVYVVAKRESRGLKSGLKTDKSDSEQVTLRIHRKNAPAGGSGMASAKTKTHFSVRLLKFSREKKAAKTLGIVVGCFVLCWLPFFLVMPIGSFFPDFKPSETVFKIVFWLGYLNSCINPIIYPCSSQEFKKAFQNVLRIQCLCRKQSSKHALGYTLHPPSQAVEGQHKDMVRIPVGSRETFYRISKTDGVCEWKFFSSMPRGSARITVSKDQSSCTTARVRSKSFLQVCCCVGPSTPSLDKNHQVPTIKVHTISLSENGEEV

[2] = molecular target: T2, Sigma non-opioid intracellular receptor 1 (Homo sapiens, UniProt Q99720); experiment: Displacement of [3H]-(+)-pentazocine from human sigma-1 receptor expressed in HEK293 membranes incubated for 120 mins by liquid scintillation counting method
T2 sequence (Q99720 whole entry): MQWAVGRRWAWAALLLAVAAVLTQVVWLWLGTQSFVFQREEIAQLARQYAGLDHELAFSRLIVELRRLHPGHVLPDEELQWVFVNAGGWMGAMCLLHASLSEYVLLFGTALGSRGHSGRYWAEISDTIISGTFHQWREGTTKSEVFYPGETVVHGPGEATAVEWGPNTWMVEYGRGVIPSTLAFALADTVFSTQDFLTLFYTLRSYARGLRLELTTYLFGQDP

Mu-type opioid receptor [3] = molecular target: T3, Mu-type opioid receptor (Homo sapiens, UniProt P35372); experiment: Agonist activity at human MOR expressed in CHOK1 cells assessed as […] of cAMP accumulation at 1 uM incubated for 45 mins by HTRF assay; format: functional, cell-based
T3 sequence (P35372 whole entry): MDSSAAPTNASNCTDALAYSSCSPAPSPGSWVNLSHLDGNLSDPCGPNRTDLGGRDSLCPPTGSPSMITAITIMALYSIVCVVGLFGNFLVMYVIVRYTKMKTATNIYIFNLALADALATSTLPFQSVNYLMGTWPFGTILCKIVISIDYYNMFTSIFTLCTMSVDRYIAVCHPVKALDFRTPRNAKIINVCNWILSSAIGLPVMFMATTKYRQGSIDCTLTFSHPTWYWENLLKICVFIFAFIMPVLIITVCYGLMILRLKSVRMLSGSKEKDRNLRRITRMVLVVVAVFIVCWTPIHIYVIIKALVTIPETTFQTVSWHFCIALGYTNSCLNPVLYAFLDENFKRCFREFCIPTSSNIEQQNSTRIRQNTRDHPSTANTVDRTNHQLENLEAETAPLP

Mu-type opioid receptor [4] = molecular target: T3, Mu-type opioid receptor; experiment: Displacement of [3H]-DAMGO from human MOR expressed in CHOK1 cell membranes at 1 uM incubated for 60 mins by liquid scintillation counting method
Mu-type opioid receptor [5] = molecular target: T3, Mu-type opioid receptor; experiment: Agonist activity at human MOR expressed in CHOK1 cells assessed as […] of cAMP accumulation incubated for 45 mins by HTRF assay; format: functional, cell-based
Mu-type opioid receptor [6] = molecular target: T3, Mu-type opioid receptor; experiment: biochemical
Description: Displacement of [3H]-DAMGO from human MOR expressed in CHOK1 cell membranes incubated for 60 mins by liquid scintillation counting method

Mus musculus [7] = experiment: Antinociceptive activity in orally dosed mouse assessed as reduction in mechanical nociception measured after 30 mins post dose by paw pressure pain test; format: functional; details: po, 0.5 h
Mus musculus [8] = experiment: Induction of constipation in mouse assessed as effect on intestinal transit at 10 mg/kg, po dosed 30 mins before charcoal suspension dosing and measured after 30 mins; format: organism-based; details: in vivo, 0.5 h
[9] = molecular target: Voltage-gated inwardly rectifying potassium channel KCNH2 (Homo sapiens, UniProt Q12809)
Sequence of Voltage-gated inwardly rectifying potassium channel KCNH2 (Q12809 whole entry): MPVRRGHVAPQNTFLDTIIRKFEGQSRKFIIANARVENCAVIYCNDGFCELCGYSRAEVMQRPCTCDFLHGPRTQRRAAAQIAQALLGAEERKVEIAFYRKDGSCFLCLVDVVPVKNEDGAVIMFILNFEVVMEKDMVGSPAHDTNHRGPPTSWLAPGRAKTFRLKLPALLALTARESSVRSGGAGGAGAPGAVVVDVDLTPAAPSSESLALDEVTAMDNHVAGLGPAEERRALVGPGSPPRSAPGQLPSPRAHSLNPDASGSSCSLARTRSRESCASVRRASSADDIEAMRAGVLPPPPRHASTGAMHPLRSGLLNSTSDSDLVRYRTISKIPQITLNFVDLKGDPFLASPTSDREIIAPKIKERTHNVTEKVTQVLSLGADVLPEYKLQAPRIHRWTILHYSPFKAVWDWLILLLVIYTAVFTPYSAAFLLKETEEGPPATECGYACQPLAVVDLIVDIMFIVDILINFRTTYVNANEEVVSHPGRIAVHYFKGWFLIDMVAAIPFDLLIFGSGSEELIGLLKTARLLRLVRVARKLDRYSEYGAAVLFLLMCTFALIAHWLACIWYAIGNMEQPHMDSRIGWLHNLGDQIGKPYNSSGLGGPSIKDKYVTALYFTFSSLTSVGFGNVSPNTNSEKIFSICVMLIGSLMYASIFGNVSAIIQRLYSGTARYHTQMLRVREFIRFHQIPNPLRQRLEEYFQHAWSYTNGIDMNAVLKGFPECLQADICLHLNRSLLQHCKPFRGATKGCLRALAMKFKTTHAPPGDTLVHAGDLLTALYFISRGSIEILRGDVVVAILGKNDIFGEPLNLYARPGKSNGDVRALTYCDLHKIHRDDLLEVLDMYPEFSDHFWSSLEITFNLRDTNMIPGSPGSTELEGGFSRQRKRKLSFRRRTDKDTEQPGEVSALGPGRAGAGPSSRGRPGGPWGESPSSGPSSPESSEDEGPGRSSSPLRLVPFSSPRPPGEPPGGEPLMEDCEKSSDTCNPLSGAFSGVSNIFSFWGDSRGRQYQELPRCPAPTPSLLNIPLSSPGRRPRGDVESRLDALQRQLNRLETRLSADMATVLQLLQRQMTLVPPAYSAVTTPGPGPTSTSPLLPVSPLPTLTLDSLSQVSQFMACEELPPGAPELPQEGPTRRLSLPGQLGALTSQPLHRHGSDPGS
Description: Inhibition of human ERG expressed in CHOK1 cells assessed as reduction in channel current at -80 mV holding potential by whole cell patch clamp assay

hERG (KCNH2) = hERG (KCNH2) (Homo sapiens, UniProt Q12809); experiment: Inhibition of human ERG expressed in CHOK1 cells assessed as reduction in channel current at 10 uM at -80 mV holding potential by whole cell patch clamp assay relative to control; format: cell-based; details: CHO-K1 cells expressing human ERG
Sequence of hERG (KCNH2) (Q12809 whole entry): as above

Mu-type opioid receptor [10] = molecular target: T3, Mu-type opioid receptor; experiment: Agonist activity at human MOR expressed in CHOK1 cells assessed as […] of cAMP accumulation incubated for 45 mins by HTRF assay relative to DAMGO; format: functional, cell-based
Mu-type opioid receptor [11] = molecular target: T3, Mu-type opioid receptor; experiment: Agonist activity at human MOR expressed in CHOK1 cells assessed as […] of cAMP accumulation at 10 uM incubated for 45 mins by HTRF assay; format: functional, cell-based
Cytochrome P450 2C19 = Cytochrome P450 2C19 (Homo sapiens, UniProt P33261); experiment: Inhibition of recombinant human CYP2C19 using fluorometric substrate; format: ADME; details: recombinant enzyme
Sequence of Cytochrome P450 2C19 (P33261 whole entry): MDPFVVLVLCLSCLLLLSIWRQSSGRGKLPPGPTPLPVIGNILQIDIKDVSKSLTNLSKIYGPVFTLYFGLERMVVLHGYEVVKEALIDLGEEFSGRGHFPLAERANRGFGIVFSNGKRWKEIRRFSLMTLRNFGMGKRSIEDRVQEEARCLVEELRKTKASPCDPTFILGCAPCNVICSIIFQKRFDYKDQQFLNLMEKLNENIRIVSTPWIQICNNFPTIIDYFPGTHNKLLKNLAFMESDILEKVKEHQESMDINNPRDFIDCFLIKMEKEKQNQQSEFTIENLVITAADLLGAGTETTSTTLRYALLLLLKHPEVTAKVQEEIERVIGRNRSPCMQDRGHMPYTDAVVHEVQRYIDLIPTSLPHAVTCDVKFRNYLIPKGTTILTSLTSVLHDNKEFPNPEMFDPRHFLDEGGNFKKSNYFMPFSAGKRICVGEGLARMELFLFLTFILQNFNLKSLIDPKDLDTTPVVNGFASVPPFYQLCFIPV

[12] = Basicity constant, pKa of the compound; format: physicochemical
Cytochrome P450 2D6 = Cytochrome P450 2D6 (Homo sapiens, UniProt P10635); experiment: Inhibition of recombinant human CYP2D6 using fluorometric substrate; format: ADME; details: recombinant enzyme
Sequence of Cytochrome P450 2D6 (P10635 whole entry): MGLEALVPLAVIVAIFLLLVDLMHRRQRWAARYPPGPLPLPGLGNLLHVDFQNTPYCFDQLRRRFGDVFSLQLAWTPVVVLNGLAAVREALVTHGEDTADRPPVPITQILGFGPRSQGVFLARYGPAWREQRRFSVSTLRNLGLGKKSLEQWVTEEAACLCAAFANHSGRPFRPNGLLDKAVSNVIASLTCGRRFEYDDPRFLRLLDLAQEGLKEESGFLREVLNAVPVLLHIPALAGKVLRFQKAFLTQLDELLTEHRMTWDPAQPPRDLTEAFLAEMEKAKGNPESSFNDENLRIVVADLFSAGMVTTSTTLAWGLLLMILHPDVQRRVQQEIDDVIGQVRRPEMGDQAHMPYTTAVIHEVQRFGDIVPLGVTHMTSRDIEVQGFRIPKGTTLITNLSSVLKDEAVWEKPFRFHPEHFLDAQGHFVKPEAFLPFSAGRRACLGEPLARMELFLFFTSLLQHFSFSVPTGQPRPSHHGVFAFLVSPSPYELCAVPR

[13] = Clearance in human liver microsomes; format: ADME, Microsome; details: read-out: CLH
[14] = Lipophilicity, log Pof the compound; format: physicochemical; details: octanol/water
[15] = molecular target: T4, Alpha-1A adrenergic receptor (Homo sapiens, UniProt P35348); experiment: Displacement of [3H]-prazosin from human alpha1A adrenoreceptor expressed in enriched membranes incubated for 90 mins by liquid scintillation counting method; format: cell membranes
T4 sequence (P35348 whole entry): T1 sequence (whole entry)

Cytochrome P450 3A4 = Cytochrome P450 3A4 (Homo sapiens, UniProt P08684); experiment: Inhibition of recombinant human CYP3A4 using fluorometric substrate; format: ADME; details: recombinant enzyme
Sequence of Cytochrome P450 3A4 (P08684 whole entry): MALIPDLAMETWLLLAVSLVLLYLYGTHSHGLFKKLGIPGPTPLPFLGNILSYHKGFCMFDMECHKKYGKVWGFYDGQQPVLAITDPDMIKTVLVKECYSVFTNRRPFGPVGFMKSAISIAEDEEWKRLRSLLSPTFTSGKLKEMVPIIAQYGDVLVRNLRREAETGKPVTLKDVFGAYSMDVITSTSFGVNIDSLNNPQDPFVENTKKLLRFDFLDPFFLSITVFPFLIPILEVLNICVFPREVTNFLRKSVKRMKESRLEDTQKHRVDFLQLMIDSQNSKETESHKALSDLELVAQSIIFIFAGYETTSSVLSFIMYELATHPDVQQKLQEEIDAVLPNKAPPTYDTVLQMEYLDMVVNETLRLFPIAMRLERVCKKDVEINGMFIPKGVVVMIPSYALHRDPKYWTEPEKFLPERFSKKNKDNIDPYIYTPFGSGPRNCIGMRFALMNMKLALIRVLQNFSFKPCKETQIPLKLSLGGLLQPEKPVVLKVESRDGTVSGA

Mus musculus [16] = experiment: Induction of constipation in mouse assessed as effect on intestinal transit at 20 mg/kg, ip dosed 30 mins before charcoal suspension dosing and measured after 30 mins; format: organism-based; details: in vivo, 0.5 h
[17] = Thermodynamic solubility in pH 7.4 buffer; format: physicochemical; details: read-out: Therm_solubility
Cytochrome P450 2E1 = Cytochrome P450 2E1 (Homo sapiens, UniProt P05181); experiment: Inhibition of recombinant human CYP2E1 using fluorometric substrate; format: ADME; details: recombinant enzyme
[18] = Thermodynamic solubility in pH 2 buffer; format: physicochemical; details: read-out: Therm_solubility
[19] = molecular target: 5-hydroxytryptamine receptor 2B (Homo sapiens, UniProt P41595); experiment: Inhibition of 5HT2B receptor (unknown origin)
Cytochrome P450 2C9 = Cytochrome P450 2C9 (Homo sapiens, UniProt P11712); experiment: Inhibition of recombinant human CYP2C9 using fluorometric substrate; format: ADME; details: recombinant enzyme
Sequence of Cytochrome P450 2C9 (P11712 whole entry): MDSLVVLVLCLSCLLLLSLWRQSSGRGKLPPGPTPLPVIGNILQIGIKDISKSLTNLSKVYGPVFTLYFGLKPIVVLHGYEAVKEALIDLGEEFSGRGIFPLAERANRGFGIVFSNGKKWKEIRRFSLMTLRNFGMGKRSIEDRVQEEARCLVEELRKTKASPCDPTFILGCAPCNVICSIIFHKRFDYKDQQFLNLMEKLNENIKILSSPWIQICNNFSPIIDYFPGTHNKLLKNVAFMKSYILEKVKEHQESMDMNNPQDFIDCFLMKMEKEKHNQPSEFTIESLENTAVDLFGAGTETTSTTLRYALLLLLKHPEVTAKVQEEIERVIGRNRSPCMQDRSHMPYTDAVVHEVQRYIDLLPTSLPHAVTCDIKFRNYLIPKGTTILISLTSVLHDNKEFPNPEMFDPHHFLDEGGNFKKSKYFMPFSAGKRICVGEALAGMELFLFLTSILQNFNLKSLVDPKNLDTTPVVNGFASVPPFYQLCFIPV

Mus musculus [20] = experiment: Antinociceptive activity in ip dosed mouse assessed as reduction in mechanical nociception measured after 30 mins post dose by paw pressure pain test; format: functional; details: 0.5 h
Cytochrome P450 1A2 = molecular target: T5, Cytochrome P450 1A2 (Homo sapiens, UniProt P05177); experiment: Inhibition of recombinant human CYP1A2 using fluorometric substrate; format: ADME; details: recombinant enzyme
T5 sequence (P05177 whole entry): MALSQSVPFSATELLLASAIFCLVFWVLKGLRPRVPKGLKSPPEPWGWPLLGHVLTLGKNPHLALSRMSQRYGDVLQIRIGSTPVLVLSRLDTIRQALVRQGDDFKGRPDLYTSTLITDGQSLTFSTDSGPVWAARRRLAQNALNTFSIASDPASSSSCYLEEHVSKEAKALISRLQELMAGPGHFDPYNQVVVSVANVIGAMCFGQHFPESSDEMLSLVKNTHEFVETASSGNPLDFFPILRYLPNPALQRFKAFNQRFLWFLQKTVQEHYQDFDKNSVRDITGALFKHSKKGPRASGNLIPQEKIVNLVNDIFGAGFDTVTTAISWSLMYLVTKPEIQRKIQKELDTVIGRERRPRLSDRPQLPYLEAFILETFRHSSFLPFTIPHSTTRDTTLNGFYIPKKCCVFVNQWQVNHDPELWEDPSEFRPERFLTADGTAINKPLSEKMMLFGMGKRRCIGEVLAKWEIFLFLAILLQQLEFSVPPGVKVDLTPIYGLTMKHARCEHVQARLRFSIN

[21] = molecular target: T2, Sigma non-opioid intracellular receptor 1; experiment: Displacement of [3H]-(+)-pentazocine from human sigma-1 receptor expressed in HEK293 membranes at 1 uM incubated for 120 mins by liquid scintillation counting method relative to control
Mu-type opioid receptor [22] = molecular target: T3, Mu-type opioid receptor; experiment: Displacement of [3H]-DAMGO from human MOR expressed in CHOK1 cell membranes at 10 uM incubated for 60 mins by liquid scintillation counting method

SMILES | inhibition [1] [%] | Ki [2] [nM] | Activity (Mu-type opioid receptor [3]) [%] | inhibition (Mu-type opioid receptor [4]) [%] | EC50 (Mu-type opioid receptor [5]) [nM] | Ki (Mu-type opioid receptor [6]) [nM] | also measured
CC(=O)Nc1ccc(CCN2CCC3(CC2)CN(c2ccccc2)C(=O)C(C)O3)cc1 (stereo not given) | 60 | 237 | < 50 | < 50 | > 1000 | > 1000 | 
COc1ccc(N2CC3(CCN(CCc4ccccc4)CC3)OC(C)C2=O)cc1 (stereo not given) | 69 | 14 | < 50 | < 50 | > 1000 | > 1000 | 
O=C1OC2(CCN(CCc3ccccc3)CC2)CN1c1ccccc1 |  | 55 | < 50 |  | > 1000 | 401 | 
CC1OC2(CCN(CCc3ccccc3)CC2)CN(c2ccc(O)cc2)C1=O (stereo not given) | 68 | 122 | < 50 |  | > 1000 | 606 | 
O=C1COC2(CCN(CCc3ccccc3)C2)CN1c1ccccc1 (stereo not given) |  | 53 | < 50 | < 50 | > 1000 | > 1000 | 
CC1OC2(CCN(CCc3ccccc3)CC2)CN(c2ccccc2O)C1=O (stereo not given) | 66 | 51 | < 50 |  | > 1000 | 535 | 
COc1ccc2c3c1O[C@H]1C(=O)CC[C@@]4(O)[C@@H](C2)N(C)CC[C@]314 [OXYCODONE] |  |  |  |  |  |  | ED50 (Mus musculus [7]): 4.3 mg/kg; Activity (Mus musculus [8]): Toxic
CC(=O)Nc1cccc(CCN2CCC3(CC2)CN(c2ccccc2)C(=O)[C@@H](C)O3)c1 | 90 | 205 |  |  | 69 | 46 | IC50 [9]: > 10000 nM; inhibition at 10 µM (hERG (KCNH2)): < 50%; Emax (Mu-type opioid receptor [10]): 95%
CC1OC2(CCN(CCc3ccccc3)CC2)CN(c2ccncc2)C1=O (stereo not given) | 68 | 88 | < 50 | < 50 | > 1000 | > 1000 | 
Cc1cc(OCCN2CCOCC2)nn1-c1ccc2ccccc2c1 |  |  |  |  |  |  | Activity (Mu-type opioid receptor [11]): < 50%
CC1OC2(CCN(CCc3ccccc3)CC2)CN(c2ccc(C(F)(F)F)nc2)C1=O (stereo not given) | 66 | 9 | < 50 | < 50 | > 1000 | > 1000 | 
CC1OC2(CCN(CCc3ccccc3)CC2)CN(c2cccc(O)c2)C1=O (stereo not given) | 67 | 55 | < 50 |  | > 1000 | 727 | 
O=C1N(c2cccnc2C(F)(F)F)CC2(CCN(CCc3ccccc3F)CC2)OC12CC2 |  |  |  |  |  |  | inhibition (INH) (Cytochrome P450 2C19): < 50%; pKa [12]: 7.82; inhibition (INH) (Cytochrome P450 2D6): < 50%; microsomal CLint [13]: 20 µL/min/mg; logP [14]: 3.41; IC50 [9]: > 10000 nM; Ki [15]: 470 nM; inhibition (INH) (Cytochrome P450 3A4): < 50%; Activity (Mus musculus [16]): Non-Toxic; solubility thermodynamic [17]: 160 µg/mL (≈ 0.345 mM); inhibition (INH) (Cytochrome P450 2E1): < 50%; solubility thermodynamic [18]: 2630 µg/mL (≈ 5.67 mM); inhibition at 10 µM (hERG (KCNH2)): < 50%; Ki [19]: 754 nM; inhibition (INH) (Cytochrome P450 2C9): < 50%; ED50 (Mus musculus [20]): 15 mg/kg; inhibition (INH) (Cytochrome P450 1A2): < 50%
O=C(O)CC1OC2(CCN(CCc3ccccc3)CC2)CN(c2ccccc2)C1=O (stereo not given) |  | > 1000 | < 50 | < 50 | > 1000 | > 1000 | inhibition [21]: < 50%
CC1OC2(CCN(CCc3ccccc3)CC2)CN(c2cncc(C(F)(F)F)c2)C1=O (stereo not given) | 87 | 14 |  |  | 721 | 261 | IC50 [9]: 500 nM; Emax (Mu-type opioid receptor [10]): 92%
O=C(CCCN1CCC(O)(c2ccc(Cl)cc2)CC1)c1ccc(F)cc1 |  |  |  |  |  |  | Activity (Mu-type opioid receptor [11]): < 50%; inhibition (Mu-type opioid receptor [22]): < 50%
CC(=O)Nc1cccc(CCN2CCC3(CC2)CN(c2ccccc2)C(=O)C(C)O3)c1 (racemic) | 88 | 147 |  |  | 343 | 144 | IC50 [9]: > 10000 nM; inhibition at 10 µM (hERG (KCNH2)): < 50%; Emax (Mu-type opioid receptor [10]): 96%
CN(C)C(=O)CC1OC2(CCN(CCc3ccccc3)CC2)CN(c2ccccc2)C1=O (stereo not given) |  | 275 | < 50 |  | > 1000 | 636 | 
